According to patent US20240051942A1, “SOLID FORM OF COMPOUND” (INXMED (NANJING) CO., LTD., priority 2020, published 2024):
Values after ≈ are worked out from the molar mass of the structure shown. Where a name gives a salt, the structure may show the parent alone.

Experiments:
Assay type in all cases: physicochemical
[1] = Suspension competitive crystal transformation test of crystalline forms I and III of the tartrate salt (XRPD); details: for Crystalline form after suspension competition: 24 h
Method: Crystalline form I and crystalline form III (each 20 mg) were weighed and added into a 2 mL or 10 mL glass bottle, and 0.5 mL or 1 mL of organic solvent was added, respectively, according to the solubility. Two batches were prepared with the same solvent, and placed respectively at room temperature and 50° C. for suspension competition for 24 h. The suspension was centrifuged (10000 rpm, 3 min). The obtained solid powder was then vacuum-dried and tested for XRPD (See FIGS. 30 and 31 for details).

[2] = Solubility test (shaker 25° C., 24 hours, filtrate by HPLC); details: for solubility at 24 h: 25 °C, thermodynamic from solid
Method: (§1) A certain amount of crystalline form A of free base of the compound of formula (I), crystalline form I of the tartrate salt, and crystalline form III of the tartrate salt were weighed and placed in a 5 mL sample bottle. Deionized water, pH 2.0 glycine-hydrochloric acid buffer solution, pH 4.5 Na2HPO4-citric acid buffer solution, and pH 6.8 Na2HPO4-citric acid buffer solution were added respectively (each 2 mL). The mixture was placed on a shaker at 25° C., shaken for 24 hours, and then filtered. The filtrate was tested for solubility by HPLC; and the solid was detected by XRPD to determine whether the crystalline form was transformed.
The chromatographic conditions were as follows: • Chromatographic column: Unitary C18 (5 μm, 100 A, 4.6×250 mm) • Mobile phase: Phase A was ammonium acetate with pH of 6.2, and phase B was acetonitrile, A: B=10:90. • Detection wavelength: 230 nm, Column temperature: 35° C. • Injection volume: 20 μL

[3] = Stability under pressure condition (powder tablet press, XRPD); details: mechanical pressures of 2, 4, 6, 8, and 10 N, 5 minutes
Method: An appropriate amount of powders of crystalline form A of the free base, crystalline form I of the tartrate salt, and crystalline form III of the tartrate salt were weighed and evenly spread on the bottom of the mold of a powder tablet press. To simulate the pressure conditions in a formulation process, mechanical pressures of 2, 4, 6, 8, and 10 N were applied respectively. The pressure was kept stable for 5 minutes, and then samples were taken for XRPD to investigate the stability of the crystalline form under pressure conditions. For details of patterns, see FIGS. 24-26.

[4] = XRPD of the solid after the solubility test (crystal transformation)
Method: as §1

[5] = Water adsorption and desorption test (DVS); details: for Moisture absorption: 25° C.
Method: • 4. Gravimetric Dynamic Vapor Sorption Isotherm Plot (DVS)
Dynamic water adsorption instrument (DVS) was used to investigate the adsorption and desorption test of crystalline forms I and III of the tartrate salt at 25° C. in the range of 0-95% relative humidity, so as to determine hygroscopicity of various crystalline forms (For details, see FIGS. 4d and 5d).

[6] = Accelerated stability test: influence factor test and accelerated test, solid XRPD; details: for Stability of crystalline form, summary in words: high temperature, high humidity, strong light and accelerated test conditions
Method: According to the stability test requirements for the raw drug in the fourth part of the 2015 edition of the “Chinese Pharmacopoeia”, “Guiding Principles for the Stability Test of Raw Drugs and Preparations”, the influence factor test and the accelerated test were investigated on crystalline form.
High temperature test (T): The powder was placed in a suitable sealed glass bottle, and placed at 60° C. for 10 days. Samples were taken on the 5th and 10th day to detect the solid XRPD.
High humidity test (H): The powder was placed in an open constant temperature and humidity box, and placed at 25° C., 90%±5% RH for 10 days. Samples were taken on the 5th and 10th day and the solid XRPD was detected so as to investigate the moisture absorption and deliquescence performances.
Strong light irradiation test (L): The powder was placed in an open box equipped with a fluorescent lamp, and placed under the condition of an illumination of 4500±5001x for 10 days. Samples were taken on the 5th and 10th day to detect the solid XRPD.
Accelerated test (A): The powder was placed in an open constant temperature and humidity box, and placed at 40° C., 75%±5% RH for 10 days. Samples were taken on the 5th and 10th day to detect the solid XRPD.

[7] = Stability under grinding condition (ball mill, XRPD); details: automatic ball mill, grinding 5, 10, 15, and 30 min
Method: An appropriate amount of powders of crystalline form A of the free base, crystalline form I of the tartrate salt and crystalline form III of the tartrate salt were weighed and evenly spread in an agate mortar. Agate beads were added. To simulate the grinding conditions in a formulation process, the vibration frequency of the automatic ball mill was set at 25S-1, and the grinding was carried out for 5, 10, 15, and 30 min, respectively. Then samples were taken for XRPD to investigate the stability of the crystalline form under grinding conditions. For details of patterns, see FIGS. 27-29.

[8] = Deionized water, 25° C., 24 hours
[9] = pH 2.0 glycine-hydrochloric acid buffer solution, 25° C., 24 hours
[10] = pH 4.5 Na2HPO4-citric acid buffer solution, 25° C., 24 hours
[11] = pH 6.8 Na2HPO4-citric acid buffer solution, 25° C., 24 hours
[12] = pH 6.8 buffered saline solution
[13] = solid after solubility test in deionized water
[14] = Accelerated (40° C./75%), 5 days
[15] = Accelerated (40° C./75%), 10 days
[16] = High humidity (92.5% RH), 25° C., 5 days
[17] = High humidity (92.5% RH), 25° C., 10 days
[18] = High temperature (60° C.), 5 days
[19] = High temperature (60° C.), 10 days
[20] = Strong light (4500 lx), 10 days

Row | Solubility [2, 8] [µg/mL] | Solubility [2, 9] [µg/mL] | Solubility [2, 10] [µg/mL] | Solubility [2, 11] [µg/mL] | Solubility compared with the amorphous form of the free base [2, 12] | Stability of the crystalline form under pressure conditions (XRPD) [3] | Crystal transformation as detected by XRPD [4, 13] | Moisture absorption ([5]; from 90% to 95% RH) [%] | Moisture absorption ([5]; humidity range of 40-80% RH) [%] | Stability of crystalline form (XRPD) [6, 14] | Stability of crystalline form (XRPD) [6, 15] | Stability of crystalline form (XRPD) [6, 16] | Stability of crystalline form (XRPD) [6, 17] | Stability of crystalline form (XRPD) [6, 18] | Stability of crystalline form (XRPD) [6, 19] | Stability of crystalline form (XRPD) ([6]; Strong light (4500 lx), 5 days) | Stability of crystalline form (XRPD) [6, 20] | Stability of the crystalline form under grinding conditions (XRPD) [7] | SMILES | Stability of crystalline form, summary in words [6] | other results
1 |  |  |  |  |  |  |  |  |  |  |  |  |  |  |  |  |  |  | COc1cc(C(=O)NC2CCN(C)CC2)c(F)cc1Nc1ncc(C(F)(F)F)c(Oc2cccc3c2C(=O)N(C)C3)n1 |  | Crystalline form after suspension competition ([1]; Cyclohexane, 50° C.): Mixture; Crystalline form after suspension competition ([1]; Cyclohexane, room temperature): Mixture; Crystalline form after suspension competition ([1]; Methyl tert-butyl ether, 50° C.): Mixture; Crystalline form after suspension competition ([1]; Methyl tert-butyl ether, room temperature): Mixture
2 | 33 (≈ 0.0561 mM) | >10000 | >10000 | 1060 (≈ 1.8 mM) | significantly improved | stable | no crystal transformation |  |  | Consistent | Consistent | Consistent | Consistent | Consistent | Consistent | Consistent | Consistent | become amorphous | COc1cc(C(=O)NC2CCN(C)CC2)c(F)cc1Nc1ncc(C(F)(F)F)c(Oc2cccc3c2C(=O)N(C)C3)n1 [Crystalline form A of the free base] | stable under above test conditions without crystal transformation | Crystal transformation as detected by XRPD ([4]; solid after solubility test in pH 6.8 buffered saline solution): no crystal transformation
3 | >10000 | >10000 | >10000 | >10000 |  | stable |  | 18.1 | 0.37 | Consistent | Consistent | Consistent | Consistent, | Consistent | Consistent | Consistent | Consistent | become amorphous | COc1cc(C(=O)NC2CCN(C)CC2)c(F)cc1Nc1ncc(C(F)(F)F)c(Oc2cccc3c2C(=O)N(C)C3)n1 [Crystalline form III of the tartrate salt] | stable under above test conditions without crystal transformation | Solubility ([2]; all the solvent systems): very good solubility; Crystallinity ([6]; high-humidity environment): reduced
4 | 1070 (≈ 1.82 mM) |  |  | 50 (≈ 0.085 mM) |  |  |  |  |  |  |  |  |  |  |  |  |  |  | COc1cc(C(=O)NC2CCN(C)CC2)c(F)cc1Nc1ncc(C(F)(F)F)c(Oc2cccc3c2C(=O)N(C)C3)n1 [Amorphous form of the free base] |  | solubility at 24 h ([2]; Na2HPO4-citric acid buffer, pH 4.5, aqueous buffer, pH 4.5 Na2HPO4-citric acid buffer solution, 24 hours): 8500 µg/mL (≈ 14.4 mM); solubility at 24 h ([2]; glycine-hydrochloric acid buffer, pH 2, aqueous buffer, pH 2.0 glycine-hydrochloric acid buffer solution, 24 hours): > 10000 µg/mL

Row | SMILES | Solubility [2, 8] [µg/mL] | Solubility [2, 9] [µg/mL] | Solubility [2, 10] [µg/mL] | Solubility [2, 11] [µg/mL] | Solubility compared with the amorphous form of the free base [2, 12] | Stability of the crystalline form under pressure conditions (XRPD) [3] | Crystal transformation as detected by XRPD [4, 13] | Moisture absorption ([5]; from 90% to 95% RH) [%] | Moisture absorption ([5]; humidity range of 40-80% RH) [%] | Stability of crystalline form (XRPD) [6, 14] | Stability of crystalline form (XRPD) [6, 15] | Stability of crystalline form (XRPD) [6, 16] | Stability of crystalline form (XRPD) [6, 17] | Stability of crystalline form (XRPD) [6, 18] | Stability of crystalline form (XRPD) [6, 19] | Stability of crystalline form (XRPD) ([6]; Strong light (4500 lx), 5 days) | Stability of crystalline form (XRPD) [6, 20] | Stability of the crystalline form under grinding conditions (XRPD) [7] | Stability of crystalline form, summary in words [6] | other results
5 | COc1cc(C(=O)NC2CCN(C)CC2)c(F)cc1Nc1ncc(C(F)(F)F)c(Oc2cccc3c2C(=O)N(C)C3)n1 [Crystalline form I of the tartrate salt] | 2590 | >10000 | 5200 | >10000 | significantly improved | stable | no crystal transformation | 0.08 | 0.33 | Consistent | Consistent | Consistent | Consistent | Consistent | Consistent | Consistent | Consistent | only reduced in the degree of crystallinity | stable under above test conditions without crystal transformation | Solubility compared with the amorphous form of the free base ([2]; deionized water): significantly improved; Relative stability of the crystalline form in suspension competition ([1]; conventional solvents except methyl tert-butyl ether and cyclohexane, room temperature and 50° C.): stable crystalline form; Weight gain (DVS) ([5]; increase in relative humidity from about 0 to about 95%): about 1%
